The test system of the assay is T1, Horseradish peroxidase (HRP).
T1 construct: gene PRXC1A; free enzyme
As to the kind of experiment: colorimetric peroxidase assay, Lineweaver-Burk plot. The class given is biochemical. To be noted: free enzyme, not immobilised; co-substrate H2O2 (concentration not stated); pH and temperature not stated; read-out: Kmapp.

In the case of `CCN(CC)c1ccc(N)cc1` [DPD, N,N-diethyl-p-phenylenediaminesulfate], the Km stood at 500 µM.

For the origin of these results see article PMC6271698, “Immobilization of Horseradish Peroxidase on NH2-Modified Magnetic Fe3O4/SiO2 Particles and Its Application in Removal of 2,4-Dichlorophenol” (Molecules, 2014).
